Measurements: patent US10239883B2, “4-imidazopyridazin-1-yl-benzamides as BTK inhibitors” (Merck Sharp & Dohme B.V., priority 2011, dated 2019)

Assays:
Lck enzyme = Lck enzyme (Homo sapiens (Human), UniProt P06239); test: Lck enzyme activity, IMAP fluorescence polarization assay; settings: 60 min pre-incubation, 6 μM ATP, bin bound in μM
Lyn enzyme = Lyn enzyme (Homo sapiens (Human), UniProt P07948); test: Lyn enzyme activity, IMAP fluorescence polarization assay; settings: for EC50 Lyn activity values: IMAP, 60 min pre-incubation, 2 μM ATP, bin bound in μM
Btk enzyme (His-Btk) = Btk enzyme (His-Btk) (Homo sapiens (Human), UniProt Q06187); test: Btk enzyme activity, IMAP fluorescence polarization assay; settings: 60 min pre-incubation, 5 μM ATP
Sequence of Btk enzyme (His-Btk) (Q06187 whole entry): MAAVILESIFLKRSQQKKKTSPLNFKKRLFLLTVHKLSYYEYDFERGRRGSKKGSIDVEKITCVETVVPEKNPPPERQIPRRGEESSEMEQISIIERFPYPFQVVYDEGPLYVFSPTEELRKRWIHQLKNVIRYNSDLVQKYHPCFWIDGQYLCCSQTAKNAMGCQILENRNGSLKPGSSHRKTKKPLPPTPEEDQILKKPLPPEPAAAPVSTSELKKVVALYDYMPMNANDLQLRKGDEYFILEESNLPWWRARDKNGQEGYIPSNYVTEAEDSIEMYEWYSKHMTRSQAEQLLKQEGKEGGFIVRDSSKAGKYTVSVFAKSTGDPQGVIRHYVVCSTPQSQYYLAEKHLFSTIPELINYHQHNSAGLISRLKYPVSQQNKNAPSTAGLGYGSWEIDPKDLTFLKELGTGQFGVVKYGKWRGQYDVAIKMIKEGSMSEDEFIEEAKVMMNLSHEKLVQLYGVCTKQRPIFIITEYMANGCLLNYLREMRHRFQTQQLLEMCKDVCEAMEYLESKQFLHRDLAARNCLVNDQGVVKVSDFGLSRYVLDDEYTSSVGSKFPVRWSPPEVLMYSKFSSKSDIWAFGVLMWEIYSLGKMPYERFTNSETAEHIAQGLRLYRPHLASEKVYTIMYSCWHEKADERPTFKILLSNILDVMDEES

Sequence of Lyn enzyme (P07948 whole entry): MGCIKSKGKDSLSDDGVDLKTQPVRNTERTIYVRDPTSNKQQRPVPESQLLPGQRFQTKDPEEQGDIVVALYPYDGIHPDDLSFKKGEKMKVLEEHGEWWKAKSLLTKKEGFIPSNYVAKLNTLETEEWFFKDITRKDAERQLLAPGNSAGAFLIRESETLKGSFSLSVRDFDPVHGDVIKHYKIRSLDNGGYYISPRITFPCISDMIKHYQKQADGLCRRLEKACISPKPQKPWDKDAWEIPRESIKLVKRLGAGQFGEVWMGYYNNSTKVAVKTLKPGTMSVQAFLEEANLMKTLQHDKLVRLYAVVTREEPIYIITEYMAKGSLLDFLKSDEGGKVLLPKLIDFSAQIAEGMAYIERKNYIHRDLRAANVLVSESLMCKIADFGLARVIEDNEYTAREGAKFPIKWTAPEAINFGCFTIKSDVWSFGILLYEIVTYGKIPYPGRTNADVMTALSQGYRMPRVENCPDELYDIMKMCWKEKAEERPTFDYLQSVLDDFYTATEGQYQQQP
Sequence of Lck enzyme (P06239 whole entry): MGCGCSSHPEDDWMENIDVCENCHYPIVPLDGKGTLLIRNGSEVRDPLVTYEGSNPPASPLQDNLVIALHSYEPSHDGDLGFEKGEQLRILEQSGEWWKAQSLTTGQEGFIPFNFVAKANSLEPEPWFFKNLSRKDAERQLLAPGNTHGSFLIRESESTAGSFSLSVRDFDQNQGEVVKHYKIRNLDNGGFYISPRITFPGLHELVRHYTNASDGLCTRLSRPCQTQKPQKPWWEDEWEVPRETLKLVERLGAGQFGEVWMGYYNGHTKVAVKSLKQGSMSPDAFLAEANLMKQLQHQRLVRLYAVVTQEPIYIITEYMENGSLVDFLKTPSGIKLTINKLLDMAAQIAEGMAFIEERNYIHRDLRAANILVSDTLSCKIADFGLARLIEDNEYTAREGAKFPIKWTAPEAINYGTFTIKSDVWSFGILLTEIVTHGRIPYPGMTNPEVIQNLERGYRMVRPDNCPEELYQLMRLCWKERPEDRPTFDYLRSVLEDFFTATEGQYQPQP

Compound | EC50 Lck activity values (Lck enzyme) | EC50 Lyn activity values (Lyn enzyme) | further results
CC#CC(=O)N1CCCC[C@H]1c1nc(-c2ccc(C(=O)Nc3cc(CCC)ccn3)cc2)c2c(N)nccn12 [Example 64, (S)-4-(8-amino-3-(1-but-2-ynoylpiperidin-2-yl)imidazo[1,5-a]pyrazin-1-yl)-N-(4-propylpyridin-2-yl)benzamide] | <1 µM |  | 
C=CC(=O)N1CCC[C@H]1c1nc(-c2ccc(C(=O)Nc3cc(-c4ccccc4)ccn3)cc2)c2c(N)nccn12 [Example 133, (S)-4-(3-(1-acryloylpyrrolidin-2-yl)-8-aminoimidazo[1,5-a]pyrazin-1-yl)-N-(4-phenylpyridin-2-yl)benzamide] | <1 µM | <1 µM | 
C=CC(=O)N1CCC[C@H]1c1nc(-c2ccc(C(=O)Nc3cc(C(F)(F)F)ccn3)cc2)c2c(N)nccn12 [Example 62, (S)-4-(3-(1-acryloylpyrrolidin-2-yl)-8-aminoimidazo[1,5-a]pyrazin-1-yl)-N-(4-(trifluoromethyl)pyridin-2-yl)benzamide] | <1 µM |  | 
Nc1nccn2c([C@@H]3CCCN3C(=O)/C=C/c3ccccc3)nc(-c3ccc(C(=O)Nc4ccccn4)cc3)c12 [Example 104, (S,E)-4-(8-amino-3-(1-cinnamoylpyrrolidin-2-yl)imidazo[1,5-a]pyrazin-1-yl)-N-(pyridin-2-yl)benzamide] | <1 µM |  | EC50 Btk activity values (Btk enzyme (His-Btk); bin bound in μM): <1 µM
CCCc1ccnc(NC(=O)c2ccc(-c3nc([C@H](C)N(C)C(=O)/C=C/CN(C)C)n4ccnc(N)c34)cc2)c1 [Example 76, (S,E)-4-(8-amino-3-(1-(4-(dimethylamino)-N-methylbut-2-enamido)ethyl)imidazo[1,5-a]pyrazin-1-yl)-N-(4-propylpyridin-2-yl)benzamide] | <1 µM |  | 
CC#CC(=O)N1CCC[C@H]1c1nc(-c2ccc(C(=O)Nc3nccs3)cc2)c2c(N)nccn12 [Example 60, (S)-4-(8-amino-3-(1-but-2-ynoylpyrrolidin-2-yl)imidazo[1,5-a]pyrazin-1-yl)-N-(thiazol-2-yl)benzamide] | <1 µM | <1 µM | EC50 Btk activity values (Btk enzyme (His-Btk); bin bound in nM): <0.1 µM; EC50 (Lyn enzyme): 100 to 1000 nM
CC#CC(=O)N1CCC[C@H]1c1nc(-c2ccc(C(=O)Nc3cc(-c4ccccc4)ccn3)cc2)c2c(N)nccn12 [Example 132, (S)-4-(8-amino-3-(1-but-2-ynoylpyrrolidin-2-yl)imidazo[1,5-a]pyrazin-1-yl)-N-(4-phenylpyridin-2-yl)benzamide] | <1 µM |  | 

The next lines start with results.

EC50 Lck activity values (Lck enzyme) | EC50 Lyn activity values (Lyn enzyme) | Compound | further results
<1 µM | <1 µM | C=CC(=O)N1CCC[C@H]1c1nc(-c2ccc(C(=O)Nc3cc(CCC)ccn3)cc2)c2c(N)nccn12 [Example 125, (S)-4-(3-(1-acryloylpyrrolidin-2-yl)-8-aminoimidazo[1,5-a]pyrazin-1-yl)-N-(4-propylpyridin-2-yl)benzamide] | 
<1 µM | <1 µM | C=CC(=O)N1CCC[C@H]1c1nc(-c2ccc(C(=O)Nc3cc(C)ccn3)cc2)c2c(N)nccn12 [Example 124, (S)-4-(3-(1-acryloylpyrrolidin-2-yl)-8-aminoimidazo[1,5-a]pyrazin-1-yl)-N-(4-methylpyridin-2-yl)benzamide] | 
<1 µM | <1 µM | C=CC(=O)N1CCC[C@H]1c1nc(-c2ccc(C(=O)Nc3cc(CC)ccn3)cc2)c2c(N)nccn12 [Example 126, (S)-4-(3-(1-acryloylpyrrolidin-2-yl)-8-aminoimidazo[1,5-a]pyrazin-1-yl)-N-(4-ethylpyridin-2-yl)benzamide] | 
<1 µM |  | C=CC(=O)N1CCC[C@H]1c1nc(-c2ccc(C(=O)Nc3cc(C#N)ccn3)cc2)c2c(N)nccn12 [Example 122, (S)-4-(3-(1-acryloylpyrrolidin-2-yl)-8-aminoimidazo[1,5-a]pyrazin-1-yl)-N-(4-cyanopyridin-2-yl)benzamide] | 
